Assay results reported in patent publication US12129221B2, “Difluoro phenyl amide RIP1 inhibitor” (SIRONAX LTD, priority 2018, dated 2024).

Experiments:
[1] = Liver microsome stability, mouse; format: in vitro ADME; details: liver microsomes
Excerpt: (§1) Representative Metabolic Stability Data I; +, Extrapolated.

[2] = Hepatocyte stability, mini-pig; format: in vitro ADME; details: minipig, hepatocytes, read-out: mini-pig T1/2
Excerpt: (§2) Representative Metabolic Stability Data II, +, Extrapolated.

[3] = Liver microsome stability, mini-pig; format: in vitro ADME; details: minipig, liver microsomes, read-out: mini-pig T1/2
Excerpt: as §1

[4] = Liver microsome stability, dog; format: in vitro ADME; details: dog, liver microsomes
Excerpt: as §1

[5] = Liver microsome stability, rat; format: in vitro ADME; details: liver microsomes
Excerpt: as §1

[6] = Hepatocyte stability, mouse; format: in vitro ADME; details: mouse, hepatocytes, read-out: Mouse T1/2
Excerpt: as §2

[7] = Liver microsome stability, human; format: in vitro ADME; details: liver microsomes, liver microsome stability, read-out: Human T1/2
Excerpt: as §1

[8] = Liver microsome stability, monkey; format: in vitro ADME; details: monkey, liver microsomes
Excerpt: as §1

HT-29 = assay: EC50 in HT-29; format: cell-based; details: Homo sapiens
[9] = Hepatocyte stability, monkey; format: in vitro ADME; details: monkey, hepatocytes, read-out: Monkey T1/2
Excerpt: as §2

[10] = Hepatocyte stability, rat; format: in vitro ADME; details: rat, hepatocytes, read-out: Rat T1/2
Excerpt: as §2

[11] = Hepatocyte stability, human; format: in vitro ADME; details: human, hepatocytes, read-out: Human T1/2
Excerpt: as §2

[12] = Hepatocyte stability, dog; format: in vitro ADME; details: dog, hepatocytes, read-out: Dog T1/2
Excerpt: as §2

PK in dog = details: in vivo
PK in mouse = details: in vivo
PK in rat = assay: PK in rat; set-up: species or system SD rat; details: Sprague-Dawley, in vivo; for half-life / bioavailability: rat
Excerpt: Representative PK Date of Pro-Drug Compounds

PK in monkey = details: in vivo
[13] = Hepatocyte Stability, comparison table
[14] = po, 10 mg/kg, SD rat, PO 10 mg/kg

## CCC(C)(C)C(=O)N(O)Cc1ccccc1 [Compound 92, reference compound]
[1]; comparison table with WO2016/101885 compounds, read-out: Mouse Liver Microsome T1/2
  half-life: 32 min
[1]; liver microsome stability, read-out: Mouse T1/2
  half-life: 32.5 min
[2]
  half-life: 23.1 min
[3]
  half-life: 53.5 min
[4]; comparison table with WO2016/101885 compounds, read-out: Dog Liver Microsome T1/2
  half-life: 7 min
[4]; liver microsome stability, read-out: Dog T1/2
  half-life: 7.1 min
[5]; comparison table with WO2016/101885 compounds, read-out: Rat Liver Microsome T1/2
  half-life: 25 min
[5]; liver microsome stability, read-out: Rat T1/2
  half-life: 25.1 min
[6]; [13]
  half-life: 24 min
[6]; Hepatocyte stability
  half-life: 24.4 min
[7]
  half-life: 204 min
[8]; comparison table with WO2016/101885 compounds, read-out: Monkey Liver Microsome T1/2
  half-life: 3 min
[8]; liver microsome stability, read-out: Monkey T1/2
  half-life: 2.95 min
HT-29
  EC50: 25 nM
[9]; [13]
  half-life: 19 min
[9]; Hepatocyte stability
  half-life: 18.9 min
[10]; [13]
  half-life: 14 min
[10]; Hepatocyte stability
  half-life: 14.2 min
[11]; [13]
  half-life: 73 min
[11]; Hepatocyte stability
  half-life: 73.1 min
[12]; [13]
  half-life: 14 min
[12]; Hepatocyte stability
  half-life: 13.9 min
PK in dog; IV 3 mg/kg
  AUC(0-inf): 1960 ng·h/mL
  clearance: 25.6 mL/min/kg
  half-life: 72 min
PK in dog; IV 3 mg/kg, read-out: Vdss
  Vd: 1.24 L/kg
PK in dog; PO 10 mg/kg
  AUC(0-inf): 136 ng·h/mL
  Cmax: 171 ng/mL
  bioavailability: 1.95%
  half-life: 81 min
PK in mouse; IV 2 mg/kg
  AUC(0-inf): 323 ng·h/mL
  clearance: 103 mL/min/kg
  half-life: 186 min
PK in mouse; IV 2 mg/kg, read-out: Vdss
  Vd: 3.08 L/kg
PK in mouse; PO 10 mg/kg
  AUC(0-inf): 349 ng·h/mL
  Cmax: 249 ng/mL
  bioavailability: 21.6%
  half-life: 96 min
PK in rat; Rat, IV 2 mg/kg
  AUC(0-inf): 520 ng·h/mL
  clearance: 64 mL/min/kg
PK in rat; Rat, IV 2 mg/kg, read-out: Vdss
  Vd: 1.2 L/kg
PK in rat; Rat, PO 10 mg/kg
  AUC(0-inf): 214 ng·h/mL
  Cmax: 148 ng/mL
PK in rat; SD rat, PO 10 mg/kg
  AUC: 29.9 ng·h/mL
PK in rat; iv, 2 mg/kg, IV 2 mg/kg
  half-life: 18 min
PK in rat; po, 10 mg/kg, PO 10 mg/kg
  bioavailability: 1.2%
  half-life: 48 min
PK in rat; [14]
  bioavailability: 1.15%
  half-life: 38.4 min
PK in monkey; IV 2 mg/kg
  AUC(0-inf): 1940 ng·h/mL
  clearance: 17.6 mL/min/kg
  half-life: 46.2 min
PK in monkey; IV 2 mg/kg, read-out: Vdss
  Vd: 0.86 L/kg
PK in monkey; PO 10 mg/kg
  AUC(0-inf): 374 ng·h/mL
  Cmax: 185 ng/mL
  bioavailability: 2.6%
  half-life: 43.8 min
